# According to US11608335B2, “Somatostatin modulators and uses thereof” (CRINETICS PHARMACEUTICALS, INC., priority 2018, dated 2023):
# Like-named read-outs stand apart in the source and are kept apart here.
# Assays:
# [1] = target: human somatostatin receptor subtype 5 (Homo sapiens, UniProt P35346); assay: cAMP assay for SST5R (inhibition of cAMP via human SST5 receptor); settings: for Fold selectivity for SST5 vs SST2: SST5 over SST2, class symbols
# Description: cAMP Assay Protocol for SST5R:
# The cells are cultured at 37° C., 5% CO2 and 95% humidity. […] The cells are incubated for 20 minutes at 37° C. […] The cells are treated with 50 μL of lysis buffer (HRTF cAMP kit, Cisbio) for 30 minutes and then the lysate is diluted to 250 μL with assay buffer. The lysate is transferred to 384-well plates and cAMP detection and visualization antibodies are added and incubated for 1-24 hours at room temperature. The time-resolved fluorescent signal is read with a Tecan M1000Pro multiplate reader. The intracellular cAMP concentrations are calculated by regression to a standard curve and are plotted vs. the concentration of the compounds of the invention and the EC50 of the compounds are calculated using standard methods. All data manipulations are in GraphPad Prism v6 or v7.
# [2] = target: T1, human somatostatin receptor subtype 2 (Homo sapiens, UniProt P30874); assay: cAMP assay for SST2R (inhibition of cAMP via human SST2 receptor); type: cell-based; settings: Table B, read-out: SST2 potency
# T1 construct: expressed in transfected cells
# T1 sequence (P30874 whole entry): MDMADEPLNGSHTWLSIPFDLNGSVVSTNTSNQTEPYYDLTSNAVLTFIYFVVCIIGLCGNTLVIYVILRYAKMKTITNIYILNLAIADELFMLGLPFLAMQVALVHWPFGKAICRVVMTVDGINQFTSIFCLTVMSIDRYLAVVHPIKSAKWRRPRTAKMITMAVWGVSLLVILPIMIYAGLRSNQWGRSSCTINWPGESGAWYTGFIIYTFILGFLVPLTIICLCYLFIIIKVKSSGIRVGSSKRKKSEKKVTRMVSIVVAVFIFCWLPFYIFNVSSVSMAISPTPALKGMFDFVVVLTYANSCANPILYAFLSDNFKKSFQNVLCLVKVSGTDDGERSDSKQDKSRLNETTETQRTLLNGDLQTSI
# Source text: cAMP Assay Protocol for SST2R:
# [3] = read-out: SST5 potency, inhibition of cAMP via human SST5 receptor, Table B
# Sequence of human somatostatin receptor subtype 5 (P35346 whole entry): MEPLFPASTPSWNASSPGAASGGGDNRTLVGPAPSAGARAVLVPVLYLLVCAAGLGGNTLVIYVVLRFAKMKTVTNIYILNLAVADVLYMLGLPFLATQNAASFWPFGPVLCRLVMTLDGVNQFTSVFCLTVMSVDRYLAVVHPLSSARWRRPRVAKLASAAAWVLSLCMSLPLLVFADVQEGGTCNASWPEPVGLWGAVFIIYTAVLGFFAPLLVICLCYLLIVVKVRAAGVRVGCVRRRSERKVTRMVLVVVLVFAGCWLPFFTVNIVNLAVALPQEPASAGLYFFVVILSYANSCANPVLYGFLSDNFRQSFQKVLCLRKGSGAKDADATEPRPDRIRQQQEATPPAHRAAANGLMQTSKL
Compound,EC50 [1] [µM],Fold selectivity for SST5 vs SST2 [1],"EC50 [1, 3] [µM]",EC50 [2] [µM]
"N#Cc1ccc(-c2cncc(-c3nc4cccc(F)c4[nH]3)c2N2CC[C@H](N)C2)s1 [Compound 2-26, 5-{4-[(3S)-3-aminopyrrolidin-1-yl]-5-(4-fluoro-1H-1,3-benzodiazol-2-yl)pyridin-3-yl}thiophene-2-carbonitrile]",< 0.01,++ (++=100 to 499),< 0.01,0.1 to 1
"CC1(N)CCN(c2c(-c3cc(F)cc(OCC#N)c3)cncc2-c2nc3cccc(F)c3[nH]2)C1 (stereo not shown) [Compound 2-27, 2-{3-[4-(3-amino-3-methylpyrrolidin-1-yl)-5-(4-fluoro-1H-1,3-benzodiazol-2-yl)pyridin-3-yl]-5-fluorophenoxy}acetonitrile]",< 0.01,++ (++=100 to 499),< 0.01,0.1 to 1
"CC1(N)CCN(c2c(-c3cccc(Cl)c3)cncc2-c2nc3cccc(F)c3[nH]2)C1 (stereo not shown) [Compound 2-28, 1-[3-(3-chlorophenyl)-5-(4-fluoro-1H-1,3-benzodiazol-2-yl)pyridin-4-yl]-3-methylpyrrolidin-3-amine]",< 0.01,++ (++=100 to 499),< 0.01,0.01 to 0.1
"CC1(N)CCN(c2c(-c3ccc4cc[nH]c4c3)cncc2-c2nc3cccc(F)c3[nH]2)C1 (stereo not shown) [Compound 2-29, 1-[3-(4-fluoro-1H-1,3-benzodiazol-2-yl)-5-(1H-indol-6-yl)pyridin-4-yl]-3-methylpyrrolidin-3-amine]",< 0.01,+ (+=10 to 99),< 0.01,0.1 to 1
"Cc1cccc2nc(-c3cncc(-c4ccc(F)c(C#N)c4)c3N3CC[C@H](N)C3)[nH]c12 [Compound 2-37, 5-{4-[(3S)-3-aminopyrrolidin-1-yl]-5-(4-methyl-1H-1,3-benzodiazol-2-yl)pyridin-3-yl}-2-fluorobenzonitrile]",< 0.01,+++ (+++=≥500),< 0.01,0.1 to 1
"N#Cc1cc(F)cc(-c2cncc(-c3nc4c(F)ccc(F)c4[nH]3)c2N2CC[C@H](N)C2)c1 [Compound 2-38, 3-{4-[(3S)-3-aminopyrrolidin-1-yl]-5-(4,7-difluoro-1H-1,3-benzodiazol-2-yl)pyridin-3-yl}-5-fluorobenzonitrile]",< 0.01,+++ (+++=≥500),< 0.01,0.1 to 1
"N#Cc1cc(-c2cncc(-c3nc4cccc(F)c4[nH]3)c2N2CC[C@H](N)C2)ccc1Cl [Compound 2-39, 5-{4-[(3S)-3-aminopyrrolidin-1-yl]-5-(4-fluoro-1H-1,3-benzodiazol-2-yl)pyridin-3-yl}-2-chlorobenzonitrile]",< 0.01,++ (++=100 to 499),< 0.01,0.1 to 1
"NC(=O)c1cccc(-c2cncc(-c3nc4c(F)ccc(F)c4[nH]3)c2N2CC[C@H](N)C2)c1 [Compound 2-43, 3-{4-[(3S)-3-aminopyrrolidin-1-yl]-5-(4,7-difluoro-1H-1,3-benzodiazol-2-yl)pyridin-3-yl}benzamide]",0.01 to 0.1,+++ (+++=≥500),0.01 to 0.1,> 1
"N#Cc1cc(-c2cncc(-c3nc4c(F)ccc(F)c4[nH]3)c2N2CC[C@H](N)C2)ccc1F [Compound 2-44, 5-{4-[(3S)-3-aminopyrrolidin-1-yl]-5-(4,7-difluoro-1H-1,3-benzodiazol-2-yl)pyridin-3-yl}-2-fluorobenzonitrile]",< 0.01,+++ (+++=≥500),< 0.01,0.1 to 1
"Cc1ccc(-c2cncc(-c3nc4c(F)ccc(F)c4[nH]3)c2N2CC[C@H](N)C2)cc1C#N [Compound 2-49, 5-{4-[(3S)-3-aminopyrrolidin-1-yl]-5-(4,7-difluoro-1H-1,3-benzodiazol-2-yl)pyridin-3-yl}-2-methylbenzonitrile]",< 0.01,++ (++=100 to 499),< 0.01,0.1 to 1
